The values that follow are results of earlier work, collected in US8088413B2, “Methods for improved cryo-chemotherapy tissue ablation” (Nuvue Therapeutics, Inc., priority 2004, dated 2012).

Data set [1] has as its system human prostate cancer cell line, PC3. Particulars: free drug given 2 to 4 days prior to freezing; drug and cryo levels individually ineffective.
A further data set relates to human prostate cancer. Particulars: pretreatment; temperatures close to 0° C.

As for `O=c1[nH]cc(F)c(=O)[nH]1` [5-fluorouracil (5-FU), 5-fluorouracil], in data set [1], the “kill efficacy of cryoinjury” value was “increased kill efficacy”.
For the compound Tumor Necrosis Factor-alpha, the effect on cryoinjury result in the data set on human prostate cancer was “augments the cryoinjury”.
